Tests used:
other hTAS2 receptors = experiment: calcium imaging (FLIPR), effect on agonist-dependent hTAS2R activation; assay type: cell-based, human; conditions: 100 μM test substance; cognate agonists of Table 2
Excerpt: (§1) Human TAS2R cDNAs were cloned into pcDNA5/FRT (Invitrogen, San Diego, Calif.). For adequate plasma membrane targeting, receptor cDNA was fused to the aminoterminal sequence of the rat somatostatin type 3 receptor at the aminoterminus of the recombinant protein (Bufe, B., T. Hofmann, et al. (2002) Nat Genet. 32(3): 397-401). For immunological detection, the Herpes simplex Glycoprotein D epitope was supplemented at the carboxyterminus of the recombinant protein (Bufe et al., supra). Receptor constructs were transiently transfected into HEK293T cells stably expressing the chimeric G protein subunit Gα16gust44 (Ueda, T., S. Ugawa, et al. (2003) J Neurosci 23(19): 7376-80) using Lipofectamine 2000 (Invitrogen, San Diego, Calif.) in 96-well plates.
Calcium Imaging experiments were performed 24 h after transfection using a Fluorometric Imaging Plate Reader (FLIPR, Molecular Devices, Munich, Germany) as previously described (Bufe et al., supra). Taste active compounds were ordered from Sigma (Sigma-Aldrich, Taufkirchen, Germany). Absinthin, 3β hydroxy dihydro costunolide and 3β hydroxy pelenolide were kindly provided by Giovanni Appendino (Novara, Italy). […] Fluorescence signals after application of test substances were corrected for and normalized to background fluorescence (ΔF/F═(F−F0)/F0), and baseline noise was subtracted. […]

hTAS2R40 = biological target: T1, hTAS2R40 (Homo sapiens, UniProt P59535); experiment: as above; assay type: cell-based; conditions: 100 μM test substance; agonist cohumulone 0.3 μM (EC90); agonist alone = 100%
T1 construct: expressed in transfected cells; host or cells: HEK293T cells stably expressing chimeric Gα16gust44, transient transfection
T1 sequence (P59535 whole entry): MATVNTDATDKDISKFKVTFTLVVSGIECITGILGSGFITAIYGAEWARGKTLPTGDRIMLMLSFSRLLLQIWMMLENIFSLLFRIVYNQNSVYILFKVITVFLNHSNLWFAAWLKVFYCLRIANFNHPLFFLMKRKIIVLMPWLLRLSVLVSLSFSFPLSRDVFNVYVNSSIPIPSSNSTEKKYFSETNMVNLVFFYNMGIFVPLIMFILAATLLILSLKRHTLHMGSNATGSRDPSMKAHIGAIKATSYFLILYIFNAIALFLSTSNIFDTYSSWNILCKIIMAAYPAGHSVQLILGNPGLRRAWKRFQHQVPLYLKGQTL
Excerpt: as §1
(§2) Calcium Imaging experiments were performed 24 h after transfection using a Fluorometric Imaging Plate Reader (FLIPR, Molecular Devices, Munich, Germany) as previously described (Bufe et al., supra). Taste active compounds were ordered from Sigma (Sigma-Aldrich, Taufkirchen, Germany). Absinthin, 3β hydroxy dihydro costunolide and 3β hydroxy pelenolide were kindly provided by Giovanni Appendino (Novara, Italy). Test substances were directly dissolved in C1 buffer (130 mM NaCl, 10 mM Na-Hepes, 10 mM Glucose, 5 mM KCl, 2 mM CaCl2, pH 7.4) or in DMSO, respectively. DMSO stocks were further diluted in C1 buffer not exceeding a final DMSO concentration of 1% on the cells. For the investigation of antagonistic effects, test substances were premixed. Agonists were applied at concentrations corresponding to EC90, except where indicated otherwise (Table 2). Data were collected from 3 independent experiments performed in quadruplicates and processed with SigmaPlot (SPSS, Chicago, Ill.). Fluorescence signals after application of test substances were corrected for and normalized to background fluorescence (ΔF/F═(F−F0)/F0), and baseline noise was subtracted. Calculation of dose-response curves was done by nonlinear regression using the function f(y)=((a−d)/(1+(x/EC50)^nH)+d).
(§3) To test 3β hydroxy dihydro costunolide and 3β hydroxy pelenolide for antagonistic or enhancing effects on hTAS2R activation, transfected cells were stimulated with cognate agonist bitter substances at EC90 concentrations (Table 2) without 3β hydroxy dihydro costunolide and 3β hydroxy pelenolide. The cellular responses after application of the agonist alone were set to 100%, responses obtained after coapplication of agonists and 100 μM 3β hydroxy dihydro costunolide or 100 μM 3β hydroxy pelenolide are shown relative to this value (FIG. 4).

hTAS2R46 = biological target: T2, hTAS2R46 (Homo sapiens, UniProt P59540); experiment: as above; assay type: cell-based; conditions: for agonist-dependent response of hTAS2R46-expressing cells on coapplication: 100 μM test substance, agonist picrotoxinin 300 μM (EC90), agonist alone = 100%
T2 construct: expressed in transfected cells; host or cells: HEK293T cells stably expressing chimeric Gα16gust44, transient transfection
T2 sequence (P59540 1-309): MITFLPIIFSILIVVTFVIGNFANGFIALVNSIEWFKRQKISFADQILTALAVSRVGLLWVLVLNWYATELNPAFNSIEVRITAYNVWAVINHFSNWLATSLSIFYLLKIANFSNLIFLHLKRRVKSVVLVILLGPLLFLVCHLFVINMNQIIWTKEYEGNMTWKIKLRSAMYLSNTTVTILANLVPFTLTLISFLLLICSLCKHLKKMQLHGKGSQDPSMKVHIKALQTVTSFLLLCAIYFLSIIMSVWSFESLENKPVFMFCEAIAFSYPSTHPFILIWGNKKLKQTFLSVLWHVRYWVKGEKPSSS
Excerpt: as §1, §2, §3
Next we determined concentrations of half-maximal inhibition of TAS2R46. FIG. 5 illustrates the concentration-inhibition curves of TAS2R46 activated by picrotoxinin in the presence of various concentrations of 3β hydroxy dihydro costunolide or 3β hydroxy pelenolide. […] In agreement with the data described above the costunolide analog appears to be more potently inhibiting TAS2R46 than the pelenolide analog. […] As expected 3β hydroxy pelenolide has to be employed at ˜6 fold higher concentrations than 3β hydroxy dihydro costunolide to achieve 50% receptor inhibition.
Next, we established concentration-response curves for strychnine at TAS2R46 in the presence of various concentrations of 3β hydroxy dihydro costunolide.
Finally, the impact of chemical modifications on the antagonistic properties of 3β hydroxy dihydro costunolide on hTAS2R46-expressing cells was studied. Derivatives of 3β hydroxy dihydro costunolide with site-directed modifications at C3 and C11 were generated (FIG. 7A) These derivatives were tested for activation or inhibition of hTAS2R46-expressing cells in the absence or presence of the agonist strychnine (3 μM) and half-maximum effective concentrations (EC50) or half-maximal inhibitory concentrations were calculated (FIG. 7B).

hTAS2R10 = biological target: T3, hTAS2R10 (Homo sapiens, UniProt Q9NYW0); experiment: calcium imaging (FLIPR), activation of hTAS2R-transfected HEK293T-Gα16gust44 cells; assay type: cell-based; conditions: for calcium response of hTAS2R10-transfected cells: 100 μM test substance, bath application
T3 construct: expressed in transfected cells; host or cells: HEK293T cells stably expressing chimeric Gα16gust44, transient transfection
T3 sequence (Q9NYW0 1-307): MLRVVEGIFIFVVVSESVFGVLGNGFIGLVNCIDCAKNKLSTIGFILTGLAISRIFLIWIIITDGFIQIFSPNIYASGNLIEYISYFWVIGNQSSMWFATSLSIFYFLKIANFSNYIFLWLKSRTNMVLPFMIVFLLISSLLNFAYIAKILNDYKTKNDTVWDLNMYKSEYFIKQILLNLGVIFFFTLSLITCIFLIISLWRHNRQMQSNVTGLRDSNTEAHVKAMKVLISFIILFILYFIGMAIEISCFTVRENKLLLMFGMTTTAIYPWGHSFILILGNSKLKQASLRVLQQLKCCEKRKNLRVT
Excerpt: as §1, §2
(§4) In a first series of experiments we tested the two sesquiterpene lactones 3β hydroxy dihydro costunolide (formula (I) in FIG. 1) and 3β hydroxy pelenolide (formula (II) in FIG. 1) for their ability to activate hTAS2 receptor-expressing HEK293T cells.
(§5) Signal amplitudes were comparatively small (FIG. 2C).

hTAS2R14 = biological target: T4, hTAS2R14 (Homo sapiens, UniProt Q9NYV8); experiment: as above; assay type: cell-based; conditions: 100 μM test substance, bath application
T4 construct: expressed in transfected cells; host or cells: HEK293T cells stably expressing chimeric Gα16gust44, transient transfection
T4 sequence (Q9NYV8 1-317): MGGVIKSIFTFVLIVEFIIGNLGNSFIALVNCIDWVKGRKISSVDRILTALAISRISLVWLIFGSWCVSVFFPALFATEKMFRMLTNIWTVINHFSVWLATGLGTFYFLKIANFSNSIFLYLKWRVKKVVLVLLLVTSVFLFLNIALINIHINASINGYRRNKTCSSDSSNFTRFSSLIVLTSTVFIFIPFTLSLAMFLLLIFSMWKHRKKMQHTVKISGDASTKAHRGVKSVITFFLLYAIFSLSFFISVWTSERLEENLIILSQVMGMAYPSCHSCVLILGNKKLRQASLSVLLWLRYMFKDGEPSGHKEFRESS
Excerpt: as §1, §2, §4, §5

[1] = agonist denatonium benzoate 300 μM

Row | SMILES | agonist activation of cells expressing any of the other hTAS2Rs on coapplication (other hTAS2 receptors) | agonist-dependent response of hTAS2R40-expressing cells on coapplication (hTAS2R40) | strychnine response amplitude at TAS2R46 with increasing inhibitor concentrations (hTAS2R46; 0, 10, 30, 100 μM inhibitor) | change of the strychnine EC50 value at hTAS2R46 on coapplication (hTAS2R46; 100 μM inhibitor, P<0.05, one-way ANOVA) | agonist-dependent response of hTAS2R46-expressing cells on coapplication (hTAS2R46) | IC50 (hTAS2R46; agonist absinthin 100 μM) [µM] | IC50 (hTAS2R46; agonist andrographolide 30 μM) [µM] | IC50 (hTAS2R46; [1]) [µM] | IC50 (hTAS2R46; agonist picrotoxinin 300 μM) [µM] | IC50 (hTAS2R46; agonist strychnine 3 μM) [µM] | action on hTAS2R46-expressing cells (inhibition) (hTAS2R46; presence of agonist strychnine 3 μM) | mode of action of the inhibitor at TAS2R46 (hTAS2R46; strychnine concentration-response curves with 0, 10, 30, 100 μM inhibitor) | calcium response of hTAS2R10-transfected cells (hTAS2R10) | EC50 (hTAS2R10; concentration-response, intracellular calcium) [µM] | calcium response of hTAS2R14-transfected cells (hTAS2R14) | fold higher concentration than 3β hydroxy dihydro costunolide to achieve 50% receptor inhibition (hTAS2R46; TAS2R46) [fold]
1 | C/C1=C\C[C@H](O)/C(C)=C/[C@H]2OC(=O)[C@@H](C)C2CC1 (stereo partly drawn) [3β hydroxy dihydro costunolide] | did not alter | only moderately reduced | largely unaffected | significant increase | complete block | 14.1 ± 1.35 | 4.93 ± 0.54 | 6.78 ± 2.33 | 4.81 ± 1.43 | 15.3 ± 5.85 | antagonists | competitive | responded | 25.2 ± 3.6 | responded | –
2 | C/C1=C\C[C@H](O)[C@@H](C)C[C@H]2OC(=O)[C@@H](C)[C@@H]2CC1 [3β hydroxy pelenolide] | not affected | moderately attenuating effect | – | – | moderately attenuating effect | 57.8 ± 24.9 | 44.5 ± 34.5 | 51.4 ± 28.8 | 22.9 ± 3.4 | 84.9 ± 50.2 | – | – | displayed calcium signals | – | displayed calcium signals | ~6

Source: patent publication US8673578B2, “Methods of identifying antagonists of the hTAS2R46 bitter taste receptor” (Deutsches Institut für Ernahrungsforschung Potsdam-Rehbrücke, priority 2009, dated 2014)
